Data published in patent US20090318456A1, “SUBSTITUTED PTERIDINES FOR THE TREATMENT AND PREVENTION OF VIRAL INFECTIONS” (Gilead Sciences, Inc., priority 2006, published 2009).

Columns and labels:
HCV replicon = experiment: Anti-HCV replicon assay (EC50, luciferase); type: cell-based, Hepatitis C virus (HCV); details: Table 1; Huh-7 HCV replicon cells, 3 days, luciferase; read-out: EC50
Experimental: (§1) The anti HCV activity of specifically 2,4,6-trisubstituted pteridine derivatives was tested in a human hepatoma Huh-7 cell line harbouring a HCV replicon. The assay comprised the following steps:
(§2) Step 1: compound preparation and serial dilution involved the following alternatives, depending upon the water solubility of pteridine derivative being tested: • 1. with respect to water soluble 2,4,6-trisubstituted pteridine derivatives, 500 μL of solution in cell media (DMEM, 10% FBS, P/S, L-Glutamine) was prepared with a concentration that is twice the concentration of the starting final serial dilution concentration. 150 μL of the solution was added to the pre-specified wells in column 1 of a 96-well cell culture plate (PerkinElmer, white plate, cat. #6005181, for EC50 assay; black plate, cat. #6005182 for CC50 assay). The rest of the plate, i.e. columns 2-12, was filled with 100 μL of cell media. The plate was then placed on a Precision 2000 Workstation in order to start serial dilution. Pteridine compounds were diluted three times each step from column 1 to column 10. Column 11 was used as a blank control (no pteridine compound added). • 2. With respect to poorly water soluble pteridine derivatives, DMSO was used as a solvent, and serial dilution was performed in 50% DMSO in water, in a 384-well plate. A solution containing the relevant compound at 100-fold the concentration of the starting final serial dilution concentration was prepared in 50% DMSO in water and added to the pre-specified wells in column 1 of a polypropylene 384-well plate. This plate was then placed on a Precision 2000 Workstation in order to start serial dilution. After serial dilution, 2 μL of the solution was transferred from the 384-well plate to a 96-well cell culture plate containing 100 μL of cell media on a Biomek FX Workstation. The DMSO concentration in the final assay condition was 0.5% after cells have been added to the plate and the total volume in each well was brought to 200 μL. Step 2: to each well of the serial dilution plate prepared in step 1, 100 μL of cell media containing 6000 suspended Huh-7 HCV replicon cells was added with a Multidrop workstation. Plates were incubated for 3 days at 37° C. with 5% CO2. Step 3: detection: • 1) with respect to the EC50 assay, the media in a 96-well cell culture plate was aspirated with a Biotek EL405 plate-washer. A volume of 200 μL of a solution containing a 1:1 mixture of a cell-lysis buffer (commercially available from Promega, Luciferase Cell Culture Lysis 5× Reagent, cat. #E1531) and a luciferase substrate solution (commercially available from Promega, Luciferase Assay, cat. # E4550) was added to each well of the plate with Multidrop. The plate was incubated for 30 minutes at room temperature before the luminescence signal was measured with a TopCount plate-reader. • 2) with respect to the CC50 assay, 100 μL of a pre-mixed CellTiter-Glo (commercially available from Promega, cat. # G7572) solution was added directly to the cell culture in each well of the plate and the luminescence signal was measured with a TopCount plate-reader after 10 minutes of incubation at room temperature.
(§3) Results are expressed by the following data: • the 50% effective concentration (EC50), i.e. the concentration that protects 50% of the cell monolayer from virus-induced cythopathic effect, and • the 50% cytostatic concentration (CC50), i.e. the concentration that results in 50% inhibition of cell growth.

Huh-7 HCV replicon cells = experiment: CC50 assay (CellTiter-Glo) in Huh-7 HCV replicon cells; type: cell-based, human; details: Table 1, 3 days
Experimental: as §1, §2, §3

Row | Structure (SMILES) | EC50 (HCV replicon) | CC50 (Huh-7 HCV replicon cells)
1 | COc1ccc(-c2cnc3nc(N)nc(N4CCN(S(=O)(=O)Cc5ccccc5)CC4)c3n2)cc1OC [Example 34] | < 0.3 µM | > 20 µM
2 | COc1ccc(-c2cnc3nc(N)nc(N4CCN(Cc5ccc(C)cc5)CC4)c3n2)cc1OC [Example 52] | 0.3 to 1 µM | > 20 µM
3 | CCN(C(=O)N1CCN(c2nc(N)nc3ncc(-c4ccc(OC)c(OC)c4)nc23)CC1)c1ccccc1 [Example 121] | < 0.3 µM | < 10 µM
4 | COc1ccc(-c2cnc3nc(NCc4cccs4)nc(N)c3n2)cc1OC [Example 12] | 0.3 to 1 µM | 10 to 20 µM
5 | COc1ccc(-c2cnc3nc(N)nc(N4CCN(C(=O)NCc5ccccc5)CC4)c3n2)cc1OC [Example 111] | < 0.3 µM | 10 to 20 µM
6 | COc1ccc(-c2cnc3nc(N)nc(N4CCN(C(=O)Nc5cccc(C(F)(F)F)c5)CC4)c3n2)cc1OC [Example 123, 2-amino-4-(N-3-trifluoromethyl-phenyl-carbamoyl-piperazin-1-yl)-6-(3,4-dimethoxyphenyl)pteridine] | < 0.3 µM | < 10 µM
7 | COc1ccc(-c2cnc3nc(N)nc(N4CCN(C(=O)Nc5ccc(C#N)cc5)CC4)c3n2)cc1OC [Example 89] | < 0.3 µM | > 20 µM
8 | COc1ccc(-c2cnc3nc(N)nc(N4CCN(CCOc5ccccc5)CC4)c3n2)cc1OC [Example 2] | < 0.3 µM | > 20 µM
9 | COc1ccc(-c2cnc3nc(N)nc(N4CCN(C(=O)Cc5ccc(Cl)cc5)CC4)c3n2)cc1OC [Example 36] | < 0.3 µM | < 10 µM
10 | COc1ccc(-c2cnc3nc(N)nc(N4CCN(C(=O)Nc5ccccc5)CC4)c3n2)cc1OC [Example 87] | < 0.3 µM | < 10 µM
11 | COCCOC(=O)N1CCN(c2nc(N)nc3ncc(-c4ccc(OC)c(OC)c4)nc23)CC1 [Example 65] | < 0.3 µM | 10 to 20 µM
12 | COc1ccc(-c2cnc3nc(N)nc(N4CCN(C(=O)NCc5ccc(F)cc5)CC4)c3n2)cc1OC [Example 112] | < 0.3 µM | < 10 µM
13 | COc1ccc(-c2cnc3nc(N)nc(N4CCN(C(=O)Oc5ccc(C)cc5)CC4)c3n2)cc1OC [Example 59] | < 0.3 µM | < 10 µM
14 | COc1ccc(-c2cnc3nc(N)nc(N4CCN(Cc5ccccc5F)CC4)c3n2)cc1OC [Example 53] | < 0.3 µM | < 10 µM
15 | COc1ccc(-c2cnc3nc(N)nc(N4CCN(C(C)c5ccccc5)CC4)c3n2)cc1OC (stereo not shown) [Example 73] | < 0.3 µM | < 10 µM
16 | COc1ccc(-c2cnc3nc(N)nc(N4CCN(C(=O)Nc5cccc(Cl)c5)CC4)c3n2)cc1OC [Example 122, 2-amino-4-(N-3-chloro-phenyl-carbamoyl-piperazin-1-yl)-6-(3,4-dimethoxyphenyl)pteridine] | < 0.3 µM | < 10 µM
17 | COc1ccc(-c2cnc3nc(N)nc(N4CCN(C(=O)c5cc(F)c(Cl)nc5Cl)CC4)c3n2)cc1OC [Example 31] | < 0.3 µM | < 10 µM
18 | COc1ccc(-c2cnc3nc(N)nc(N4CCN(C(=O)COc5ccccc5)CC4)c3n2)cc1OC [Example 1] | < 0.3 µM | > 20 µM
19 | COc1ccc(-c2cnc3nc(N)nc(N4CCN(C(=O)N(C)c5ccccc5)CC4)c3n2)cc1OC [Example 119] | < 0.3 µM | < 10 µM
20 | COc1ccc(-c2cnc3nc(N)nc(N4CCN(S(=O)(=O)c5ccccc5)CC4)c3n2)cc1OC [Example 26] | < 0.3 µM | 10 to 20 µM
21 | COc1ccc(-c2cnc3nc(N)nc(N4CCN(C(=O)Nc5ccc(Br)cc5)CC4)c3n2)cc1OC [Example 124, 2-amino-4-(N-4-bromo-phenyl-carbamoyl-piperazin-1-yl)-6-(3,4-dimethoxyphenyl)pteridine] | < 0.3 µM | < 10 µM
22 | COc1ccc(-c2cnc3nc(N)nc(N4CCN(CC5OCCO5)CC4)c3n2)cc1OC [Example 109] | 0.3 to 1 µM | > 20 µM
23 | CCCCCOc1ccc(C(=O)N2CCN(c3nc(N)nc4ncc(-c5ccc(OC)c(OC)c5)nc34)CC2)cc1 [Example 24] | < 0.3 µM | < 10 µM
